Experimental data published in PMC7145299, “New Cysteine Protease Inhibitors: Electrophilic (Het)arenes and Unexpected Prodrug Identification for the Trypanosoma Protease Rhodesain” (Molecules, 2020).
Read-outs that look alike come from different tables or passages of the source.

Experiments:
[1] = target: T1, serine protease of the Dengue virus (DENV PR) (Dengue virus type 2, UniProt P29990); test: Dengue virus protease inhibition assay; format: biochemical; conditions: 20 µM inhibitor
T1 construct: the serine protease of the Dengue virus (DENV PR)
T1 sequence (P29990 1394-1440): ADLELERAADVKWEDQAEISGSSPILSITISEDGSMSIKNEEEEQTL
T1 sequence (P29990 1476-1653): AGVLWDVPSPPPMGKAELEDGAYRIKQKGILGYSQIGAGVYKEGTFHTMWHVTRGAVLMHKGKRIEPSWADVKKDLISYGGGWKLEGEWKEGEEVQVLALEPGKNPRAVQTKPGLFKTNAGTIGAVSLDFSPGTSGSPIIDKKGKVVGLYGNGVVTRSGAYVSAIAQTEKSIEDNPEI

cathepsin L [2] = target: T2, cathepsin L (Homo sapiens, UniProt P07711); test: biochemical; conditions: for inhibition at 20 µM: read-out: % inhibition of Cath. L
T2 sequence (P07711 114-333): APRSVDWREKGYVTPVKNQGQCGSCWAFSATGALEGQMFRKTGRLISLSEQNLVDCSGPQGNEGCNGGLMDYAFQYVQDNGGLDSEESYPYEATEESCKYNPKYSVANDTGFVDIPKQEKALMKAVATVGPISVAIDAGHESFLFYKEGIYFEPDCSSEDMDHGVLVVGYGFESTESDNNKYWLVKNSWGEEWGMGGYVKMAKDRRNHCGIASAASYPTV
Method: (§1) Inhibition of cathepsins and rhodesain was tested with the fluorogenic substrate Cbz-Phe-Arg-AMC as described previously [19]. First, a screening at 20 µM inhibitor concentration was performed. For compounds showing >60% inhibition at this concentration, the IC50 values were determined. […] The respective Ki values (Table 1) were determined from plots of the IC50 values against substrate concentration according to the Cheng–Prusoff relationship [46].
(§2) Enzyme assays / Rhodesain and Cathepsins
(§3) The assays were performe d as described previously [7,8] by incubating rhodesain in 190 μL
(§4) assay buffer (50 mM sodium acetate pH 5.5, 5 mM EDTA, 200 mM NaCl, 0.005% Brij) with 5 μL of an
(§5) inhibitor DMSO stoc k solution of a given concentrati on for 10 min at room te mperature. The reaction
(§6) was started by adding 5 μ L of 400 μM Z-Phe-Arg-7-amino-4-methylc umari n (Z-Phe-Arg-AMC) in
(§7) DMSO. The released AMC was excited at 380 nm and the upc oming fl uoresce nce measured at 460
(§8) nm at 25 °C over time. The final substrate concentration was 10 μM.
(§9) Quenching of the fluoresc ence of the released AMC by the inhibitors was acc ounted for as
described previously [9].
(§10) The cathepsin L assays wer e performed accordi ngly in 50 mM Tris buffer (pH 6.5, 5 mM EDTA,
(§11) 200 mM NaCl, 0.005% Brij) and 250 μM Z-Phe-Arg-AMC concentration (final conce ntration: 6.25 μM).
(§12) The cathepsin B (Calbioche m) assays were performed accordingly in 50 mM Tris buffer pH 6.5,
(§13) 5 mM EDTA, 200 mM NaCl and 0.005% Brij leading to final enzyme and substrate concentrati ons of
(§14) Final inhibitor c once ntrations ranged from 0.001 μM to 100.0 μM.

cathepsin B = cathepsin B (Homo sapiens, UniProt P07858); test: biochemical; conditions: for inhibition at 20 µM: read-out: % inhibition of Cath. B
Method: as §1, §2, §3, §4, §5, §6, §7, §8, §9
described previously [9].
as §10, §11, §12, §13, §14

rhodesain [3] = target: T3, rhodesain (Trypanosoma brucei rhodesiense, UniProt Q95PM0, S297A); test: Rhodesain inhibition, fluorogenic substrate Cbz-Phe-Arg-AMC; format: biochemical; conditions: for % inhibition of Rhod.: 20 µM inhibitor
T3 sequence (Q95PM0 126-342 S297A): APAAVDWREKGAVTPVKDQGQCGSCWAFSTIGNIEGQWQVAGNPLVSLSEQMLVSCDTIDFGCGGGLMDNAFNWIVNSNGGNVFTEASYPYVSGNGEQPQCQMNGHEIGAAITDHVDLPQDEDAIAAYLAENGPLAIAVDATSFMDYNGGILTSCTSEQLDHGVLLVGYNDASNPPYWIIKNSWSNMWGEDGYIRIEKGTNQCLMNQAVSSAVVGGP

S. aureus sortase A = target: T4, S. aureus sortase A (Staphylococcus aureus, UniProt Q2FV99); test: biochemical; conditions: 20 µM final inhibitor concentration
T4 construct: made in house
T4 sequence (Q2FV99 whole entry): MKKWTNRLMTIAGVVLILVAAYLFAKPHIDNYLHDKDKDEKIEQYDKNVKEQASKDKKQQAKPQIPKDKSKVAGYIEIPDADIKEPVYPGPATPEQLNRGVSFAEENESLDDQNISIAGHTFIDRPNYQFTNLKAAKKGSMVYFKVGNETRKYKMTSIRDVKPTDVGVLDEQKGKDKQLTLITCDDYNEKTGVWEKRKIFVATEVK

[4] = system: T. b. brucei 449 cell line; test: T. b. brucei cell survival assay (ATPlite); format: cell-based; conditions: Trypanosoma brucei, after 24 h, read-out: EC50 anti-trypanosomal activity
Method: Ester 7 and acid 8 were tested for their anti-trypanosomal activity against T. brucei brucei using the ATPlite assay according to previously published procedures. […] The differences in anti-protease and anti-trypanosomal activity between the lipophilic ester 7 and the more hydrophilic acid 8 might be due to different cell permeabilities of the compounds. […]
NaCl) followed by 45 min incubation at room te mpe rature. […] 5 μL of […] Z-Phe-Arg-AMC were added to 195 μL of rhodesain-8 or rhodesai n-DMSO stock solutions and the upcoming fluorescence was measured over time to assure complete inhibition (see Figure SI1)). […]
For the dilution assay, […] of the rhodesain-8 stock solution were diluted with […] 50 mM sodiu m acetate buffer (pH 5.5 with 5 mM EDTA, 200 mM NaCl 5 mM DTT) and the recovery of the enzymatic activity was measured immediately after adding […] of 400 μM Z-Phe-Arg-AMC (see […]
90 μL HMI-9 medium containing 2500 cells/mL were distributed in 96-well microplate s (PerkinEl mer). […] 50 μL of ATPlite 1 step solution (PerkinEl mer) was added to each well of the microplate and luminesce nce measured at room temperature with an Infinite® M200 PRO plate reader (Tecan Trading AG). The measured values were plotted against the c omp ound concentrati ons top yie ld the dose-resp onse c urve. The EC50 values were calculated using GraF it version 5.013 (Erithacus Software Ltd.). […]

[5] = format: physicochemical; conditions: assay buffer pH 5.5 without protease, 24 h, room temperature
rhodesain [6] = target: T3, rhodesain; test: Hydrolysis assay of ester 7 with rhodesain, LC-MS; format: biochemical; conditions: room temperature, 24 h
[7] = format: physicochemical; conditions: 800 µM in rhodesain sample buffer pH 5.5 with 10% d6-DMSO
Method: The interaction of the fluorinated inhibitors 7 and 8 with rhodesain was probed via ^19F NMR spectroscopy (Figure 3). […] To probe the rhodesain-mediated turnover of 7 into 8, we recorded time-resolved ^19F NMR spectra of 7 (800 µM) in the presence of 4 µM rhodesain (Figure 3b). During the measurement, the solution became clear and a dramatic difference in the chemical shift occurred to values identical to those observed for compound 8. The reaction was subsequently analyzed by MS (see Section 2.4), which confirmed the formation of the free acid 8.
Table S1 (DP4+)-results for product 12.
Lyophilized rhode sain was reconstituted at 4 mg/mL in 50 mM Na acetate, pH 5.5, 200 mM NaCl, 5 mM EDTA. […] After the addition of the inhibit ors at a final concentrati on of 0.1 mM, samples were analyzed by LC-MS using a nanoAcquity UP LC system (Waters Corporation) coupled to a nano-ESI-Q-TOF mass spectrome ter (Synapt G2-S HDMS, Waters Corporation). […]
For 19F NMR, c ompounds 7 (800 μM) or 8 (400 μM) were dissolved in rhodesain sample buffer (50 mM NaAcetate, pH 5.5, 200 mM NaCl, 5 mM Na-EDTA, 1 mM TCEP) with 10% d6-DMSO from a 40 mM inhibitor stock in d6-DMSO. Spectra were recorded at 303 K on a Bruker Avance 3 600 MHz spectrome ter with a Prodigy TCI cryoprobe (Bruker, Karlsruhe). Because 1H and 19F are measured in the same coil, protons wer e not decoupled during 19F acquisition. […]

cathepsin L [8] = target: T2, cathepsin L; conditions: IC50 increases linearly with substrate concentration
Method: as §1, §2, §3, §4, §5, §6, §7, §8, §9
described previously [9].
as §10, §11, §12, §13, §14

SMILES | inhibition at 20 µM [1] [%] | inhibition at 20 µM (cathepsin L [2]) [%] | inhibition at 20 µM (cathepsin B) [%] | Ki (cathepsin L [2]) [µM] | inhibition at 20 µM (S. aureus sortase A) [%] | also measured
CC(C)C[C@H](NC(=O)[C@H](Cc1ccccc1)NC(=O)c1cc([N+](=O)[O-])ccc1F)C(=O)OCc1ccccc1 [Compound 6] | 12 | 50 | 21 |  |  | 
CC(C)C[C@H](NC(=O)[C@H](Cc1ccccc1)Nc1cc([N+](=O)[O-])c([N+](=O)[O-])cc1F)C(=O)O [Compound 8] |  |  |  | 3 ± 0.9 | 0 | Ki (cathepsin B): 1.5 ± 0.29 µM; Ki (rhodesain [3]): 0.004 µM; reversibility of rhodesain inhibition (rhodesain [3]; IC50 at 10 min vs 45 min preincubation, dilution assay): reversible inhibition; EC50 [4]: 18.5 µM
CC(C)C[C@H](NC(=O)[C@H](Cc1ccccc1)Nc1cc([N+](=O)[O-])c([N+](=O)[O-])cc1F)C(=O)OCc1ccccc1 [Compound 7] | 31 | 98 | 63 | 1.6 | 16 | hydrolysis of ester by reaction buffer [5]: not hydrolyzed; Ki (cathepsin B): 4.4 µM; % inhibition of Rhod. (rhodesain [3]): 45/nd %; conversion of ester into free acid by catalytically active rhodesain (rhodesain [6]): complete conversion; solubility [7]: poor solubility; EC50 [4]: 0.0953 µM; inhibition mode from IC50 at different substrate concentrations (cathepsin L [8]): competitive inhibition mode
CC(C)C[C@H](NC(=O)[C@H](Cc1ccccc1)Nc1cc(Cl)ncn1)C(=O)OCc1ccccc1 [Compound 2] | 24 | 56 | 33 |  |  | 
CC(C)C[C@H](NC(=O)[C@H](Cc1ccccc1)Nc1cc(F)c([N+](=O)[O-])cc1[N+](=O)[O-])C(=O)OCc1ccccc1 [Compound 3] | 28 | 60 | 22 |  |  | 
CC(C)C[C@H](NC(=O)[C@H](Cc1ccccc1)NC(=O)c1cccc([N+](=O)[O-])c1F)C(=O)OCc1ccccc1 [Compound 4] | 10 | 99 | 20 | 0.66 | 11 | % inhibition of Rhod. (rhodesain [3]): 75%; Ki (rhodesain [3]; read-out: Ki Rhod.): 0.29 µM; inhibition mode from IC50 at different substrate concentrations (cathepsin L [8]): competitive inhibition
CC(C)C[C@H](NC(=O)[C@H](Cc1ccccc1)NC(=O)Nc1ccc(F)c([N+](=O)[O-])c1)C(=O)OCc1ccccc1 [Compound 5] | 11 | 8 | 10 |  |  | 
CC(C)C[C@H](NC(=O)[C@H](Cc1ccccc1)NC(=O)c1ccc(Cl)nc1Cl)C(=O)OCc1ccccc1 [Compound 1] | 19 | 57 | 16 |  |  | 
